# Measured values from patent US20070093520A1, “Method of treatment of diarrhea-predominant irritable bowel syndrome in a subject” (priority 2005, published 2007).
# System: diarrhea-predominant IBS subjects
# Test: 3007 Study: open-label 52-week safety study, adverse events and withdrawals
# Details: Cilansetron 2 mg/Cilansetron 2 mg
compound,measurement,value
"Cc1nccn1C[C@H]1CCc2c(c3cccc4c3n2CCC4)C1=O [cilansetron, (R)-(−)-4,5,6,8,9,10-hexahydro-10-[(2-methyl-1H-imidazol-1-yl)methyl]-11H-pyrido-[3,2,1-jk]-carbazol-11-one]",TEAE: Infections and Infestations,106 (41%) n (%)
same,TEAE: Influenza,11 (4%) n (%)
same,TEAE: Influenza Viral Infections,11 (4%) n (%)
same,TEAE: Inguinal Hernia NOS,0 n (%)
same,TEAE: Inguinal Hernias,0 n (%)
same,"TEAE: Injury, Poisoning and Procedural Complications",26 (10%) n (%)
same,TEAE: Intervertebral Disc Degeneration NOS,2 (<1%) n (%)
same,TEAE: Intervertebral Disc Disorder NOS,1 (<1%) n (%)
same,TEAE: Intervertebral Disc Disorders NEC,5 (2%) n (%)
same,TEAE: Intervertebral Disc Herniation,4 (2%) n (%)
same,TEAE: Intestinal Haemorrhages,4 (2%) n (%)
same,TEAE: Intraocular Pressure Increased,1 (<1%) n (%)
same,TEAE: Investigations,77 (30%) n (%)
same,TEAE: Irritable Bowel Syndrome,1 (<1%) n (%)
same,TEAE: Irritable Bowel Syndrome Aggravated,3 (1%) n (%)
same,TEAE: Joint Related Disorders NEC,1 (<1%) n (%)
same,TEAE: Joint Related Signs and Symptoms,11 (4%) n (%)
same,TEAE: Joint Sprain,1 (<1%) n (%)
same,TEAE: Joint Swelling,1 (<1%) n (%)
same,TEAE: Kidney Infection NOS,0 n (%)
same,TEAE: Laceration,3 (1%) n (%)
same,TEAE: Ligament Sprain,1 (<1%) n (%)
same,TEAE: Limb Discomfort NOS,0 n (%)
same,TEAE: Limb Injuries NEC (Incl Traumatic Amputation),1 (<1%) n (%)
same,TEAE: Limb Injury NOS,2 (<1%) n (%)
same,TEAE: Lip and Palate Disorders NEC,0 n (%)
same,TEAE: Liver Function Analyses,12 (5%) n (%)
same,TEAE: Liver Function Tests NOS Abnormal,0 n (%)
same,TEAE: Localised Infection,1 (<1%) n (%)
same,TEAE: Localised Osteoarthritis,1 (<1%) n (%)
same,TEAE: Loss of Consciousness,1 (<1%) n (%)
same,TEAE: Lower Limb Fracture NOS,0 n (%)
same,TEAE: Lower Limb Fractures and Dislocations,1 (<1%) n (%)
same,TEAE: Lower Respiratory Tract and Lung Infections,21 (8%) n (%)
same,TEAE: Lymphocyte Count Increased,2 (<1%) n (%)
same,TEAE: Memory Loss (Excl Dementia),1 (<1%) n (%)
same,TEAE: Metabolic Bone Disorders,2 (<1%) n (%)
same,TEAE: Metabolism Tests NEC,4 (2%) n (%)
same,TEAE: Migraine Headaches,5 (2%) n (%)
same,TEAE: Migraine NOS,5 (2%) n (%)
same,TEAE: Mineral and Electrolyte Analyses,2 (<1%) n (%)
same,TEAE: Monoarthritis,1 (<1%) n (%)
same,TEAE: Monocyte Count Decreased,1 (<1%) n (%)
same,TEAE: Monocyte Count Increased,2 (<1%) n (%)
same,TEAE: Mononeuropathies,2 (<1%) n (%)
same,TEAE: Movement Disorder NOS,0 n (%)
same,TEAE: Muscle Cramps,8 (3%) n (%)
same,TEAE: Muscle Infections and Inflammations,0 n (%)
same,TEAE: Muscle Pains,2 (<1%) n (%)
same,TEAE: Muscle Related Signs and Symptoms NEC,9 (4%) n (%)
same,TEAE: Muscle Spasms,1 (<1%) n (%)
same,TEAE: Muscle Strain,5 (2%) n (%)
same,TEAE: Muscle Tone Abnormalities,1 (<1%) n (%)
same,"TEAE: Muscle, Tendon and Ligament Injuries",6 (2%) n (%)
same,TEAE: Musculoskeletal Chest Pain,1 (<1%) n (%)
same,TEAE: Musculoskeletal and Connective Tissue Disorders,56 (22%) n (%)
same,TEAE: Musculoskeletal and Connective Tissue Signs and Symptoms NEC,19 (7%) n (%)
same,TEAE: Musculoskeletal and Soft Tissue Imaging Procedures,0 n (%)
same,TEAE: Myalgia,1 (<1%) n (%)
same,TEAE: Myasthenia Gravis,0 n (%)
same,TEAE: Mycoplasma Infections,1 (<1%) n (%)
same,TEAE: Myeloradiculopathy,0 n (%)
same,TEAE: Myositis,0 n (%)
same,TEAE: Nail Fungal Infection NOS,0 n (%)
same,TEAE: Nail Infection NOS,1 (<1%) n (%)
same,TEAE: Nasopharyngitis,18 (7%) n (%)
same,TEAE: Nausea,15 (6%) n (%)
same,TEAE: Nausea and Vomiting Symptoms,19 (7%) n (%)
same,TEAE: Neck Pain,1 (<1%) n (%)
same,TEAE: Nervous System Disorders,41 (16%) n (%)
same,TEAE: Neurological Signs and Symptoms NEC,4 (2%) n (%)
same,TEAE: Neuromuscular Junction Dysfunction,0 n (%)
same,TEAE: Neutrophil Count Decreased,3 (1%) n (%)
same,TEAE: Night Cramps,1 (<1%) n (%)
same,TEAE: Nitrite Urine Present,1 (<1%) n (%)
same,TEAE: Non-Accidental Overdose,1 (<1%) n (%)
same,TEAE: Non-Site Specific Injuries NEC,5 (2%) n (%)
same,TEAE: Non-Site Specific Procedural Complications,3 (1%) n (%)
same,TEAE: Ophthalmic Function Diagnostic Procedures,1 (<1%) n (%)
same,TEAE: Oral Dryness and Saliva Altered,1 (<1%) n (%)
same,TEAE: Osteoarthritis Aggravated,3 (1%) n (%)
same,TEAE: Osteoarthropathies,4 (2%) n (%)
same,TEAE: Osteopenia,0 n (%)
same,TEAE: Osteoporosis NOS,2 (<1%) n (%)
same,TEAE: Otitis Media NOS,0 n (%)
same,TEAE: Overdoses,1 (<1%) n (%)
same,TEAE: Pain in Limb,2 (<1%) n (%)
same,TEAE: Paraesthesias and Dysaesthesias,1 (<1%) n (%)
same,TEAE: Parkinson's Disease NOS,1 (<1%) n (%)
same,TEAE: Parkinson's Disease and Parkinsonism,1 (<1%) n (%)
same,TEAE: Periorbital Haematoma,1 (<1%) n (%)
same,TEAE: Peripheral Swelling,1 (<1%) n (%)
same,TEAE: Pharyngitis Streptococcal,4 (2%) n (%)
same,TEAE: Physical Examination Procedures,8 (3%) n (%)
same,TEAE: Plantar Fasciitis,2 (<1%) n (%)
same,TEAE: Pneumonia Mycoplasmal,1 (<1%) n (%)
same,TEAE: Pneumonia NOS,1 (<1%) n (%)
same,TEAE: Popliteal Bursitis,0 n (%)
same,TEAE: Post Procedural Discomfort,1 (<1%) n (%)
same,TEAE: Post Procedural Pain,2 (<1%) n (%)
same,TEAE: Proctalgia,0 n (%)
same,TEAE: Protein Urine Present,2 (<1%) n (%)
same,TEAE: Pruritus Ani,0 n (%)
same,TEAE: Rectal Cramps,1 (<1%) n (%)
same,TEAE: Rectal Disorder NOS,0 n (%)
same,TEAE: Rectal Haemorrhage,4 (2%) n (%)
same,TEAE: Rectal Tenesmus,0 n (%)
same,TEAE: Red Blood Cell Analyses,1 (<1%) n (%)
same,TEAE: Red Blood Cells Urine,0 n (%)
same,TEAE: Renal Bruit,0 n (%)
same,TEAE: Renal Function Analyses,1 (<1%) n (%)
same,TEAE: Reproductive Organ and Breast Histopathology Procedures,1 (<1%) n (%)
same,TEAE: Respiratory Tract Infection NOS,1 (<1%) n (%)
same,TEAE: Rheumatoid Arthritis,0 n (%)
same,TEAE: Rheumatoid Arthritis Aggravated,0 n (%)
same,TEAE: Rheumatoid Arthropathies,0 n (%)
same,TEAE: Rhinoviral Infections,18 (7%) n (%)
same,TEAE: Rib Fracture,1 (<1%) n (%)
same,TEAE: Road Traffic Accident,1 (<1%) n (%)
same,TEAE: Rotator Cuff Syndrome,0 n (%)
same,TEAE: Seizures and Seizure Disorders NEC,1 (<1%) n (%)
same,TEAE: Sinus Headache,3 (1%) n (%)
same,TEAE: Sinusitis Acute NOS,0 n (%)
same,TEAE: Sinusitis NOS,24 (9%) n (%)
same,TEAE: Site Specific Injuries NEC,6 (2%) n (%)
same,TEAE: Skeletal and Cardiac Muscle Analyses,19 (7%) n (%)
same,TEAE: Skin Fungal Infection NOS,1 (<1%) n (%)
same,TEAE: Skin Infection NOS,0 n (%)
same,TEAE: Skin Structures and Soft Tissue Infections,1 (<1%) n (%)
same,TEAE: Sleep Apnoea Syndrome,0 n (%)
same,TEAE: Sleep Apnoeas,0 n (%)
same,TEAE: Soft Tissue Disorders NEC,2 (<1%) n (%)
same,TEAE: Somnolence,1 (<1%) n (%)
same,TEAE: Speech and Language Abnormalities,0 n (%)
same,TEAE: Spinal Cord and Nerve Root Disorders NEC,0 n (%)
same,TEAE: Spondylitic Myelopathy,0 n (%)
same,TEAE: Spondyloarthropathies,1 (<1%) n (%)
same,TEAE: Spondylosis,1 (<1%) n (%)
same,TEAE: Staphylococcal Infection NOS,1 (<1%) n (%)
same,TEAE: Staphylococcal Infections,1 (<1%) n (%)
same,TEAE: Status Epilepticus,1 (<1%) n (%)
same,TEAE: Stomach Discomfort,0 n (%)
same,TEAE: Streptococcal Infection NOS,1 (<1%) n (%)
same,TEAE: Streptococcal Infections,5 (2%) n (%)
same,TEAE: Stress Fracture,1 (<1%) n (%)
same,TEAE: Temporomandibular Joint Disorder NOS,1 (<1%) n (%)
same,TEAE: Tendon Disorders,0 n (%)
same,TEAE: Tendonitis,0 n (%)
same,TEAE: Tension Headaches,1 (<1%) n (%)
same,TEAE: Thoracic Cage Fractures and Dislocations,1 (<1%) n (%)
same,TEAE: Tinea Cruris,0 n (%)
same,TEAE: Tinea Infections,1 (<1%) n (%)
same,TEAE: Tinea Pedis,1 (<1%) n (%)
same,TEAE: Tissue Enzyme Analyses NEC,2 (<1%) n (%)
same,TEAE: Tongue Coated,1 (<1%) n (%)
same,TEAE: Tongue Signs and Symptoms,1 (<1%) n (%)
same,TEAE: Tooth Abscess,6 (2%) n (%)
same,TEAE: Tooth Disorder NOS,1 (<1%) n (%)
same,TEAE: Tooth Impacted,1 (<1%) n (%)
same,TEAE: Tooth Infection,1 (<1%) n (%)
same,TEAE: Toothache,2 (<1%) n (%)
same,TEAE: Total Number of Subjects with at Least One TEAE,220 (86%) n (%)
same,TEAE: Transient Global Amnesia,1 (<1%) n (%)
same,TEAE: Tremor,1 (<1%) n (%)
same,TEAE: Tremor (Excl Congenital),1 (<1%) n (%)
same,TEAE: Trigger Finger,0 n (%)
same,TEAE: Triglyceride Analyses,6 (2%) n (%)
same,TEAE: Umbilical Hernia NOS,1 (<1%) n (%)
same,TEAE: Umbilical Hernias,1 (<1%) n (%)
